For 5 molecules, EC50 and Activity results are on record in ChEMBL document CHEMBL1139113, “Inhibition of the mitochondrial F1F0-ATPase by ligands of the peripheral benzodiazepine receptor” (Bioorg Med Chem Lett, 2007).

For experiment [1], the system named is Jurkat. Briefly: Induction of cell death in Jurkat cells after 24 hrs. It counts as functional, cell-based. As to conditions: Homo sapiens.
A short description of experiment [2]: Inhibition of F1F0-ATPase synthesis activity in bovine submitochondrial particles. Details: species or system Bos taurus.
Experiment [3] relates to Ramos. Briefly: Induction of cell death in Ramos cells after 24 hrs. It counts as functional, cell-based. As to conditions: Homo sapiens.
Experiment [4] concerns Ramos. Briefly: Induction of reactive oxygen species response in Ramos cells after 1 hr. Type of experiment: functional, cell-based. As to conditions: Homo sapiens.
Experiment [5] in a line: Inhibition of F1F0-ATPase hydrolysis activity in bovine submitochondrial particles. Details: species or system Bos taurus.
The subject of experiment [6] is Jurkat. Briefly: Induction of reactive oxygen species response in Jurkat cells after 1 hr. As to conditions: Homo sapiens. Type of experiment: functional, cell-based.
Experiment [7] deals with Jurkat. Briefly: Induction of cell death in Jurkat cells at 75 uM in presence of Vitamin E after 24 hrs. It counts as functional, Homo sapiens.
Experiment [8] deals with Jurkat. Briefly: Induction of reactive oxygen species response in Jurkat cells at 75 uM in presence of Vitamin E after 1 hr. It counts as functional, Homo sapiens.
Experiment [9] relates to Jurkat. Briefly: Induction of reactive oxygen species response in Jurkat cells at 75 uM after 1 hr. It counts as functional, Homo sapiens.
For experiment [10], the system named is Jurkat. Briefly: Induction of cell death in Jurkat cells at 75 uM in presence of Mn(III)tetrakis(4-benzoic acid)porphyrin after 24 hrs. Type of experiment: functional, Homo sapiens.
Experiment [11] concerns Jurkat. Briefly: Induction of reactive oxygen species response in Jurkat cells at 75 uM in presence of Mn(III)tetrakis(4-benzoic acid)porphyrin after 1 hr. It counts as functional, Homo sapiens.
The subject of experiment [12] is Jurkat. Briefly: Induction of cell death in Jurkat cells at 75 uM after 24 hrs. Type of experiment: functional, Homo sapiens.

Regarding `CN1C(=O)C(Cc2ccc3ccccc3c2)N=C(c2ccc(O)cc2)c2cc(Cl)ccc21` (stereo unspecified), the EC50 in the experiment on Jurkat [1] worked out at 6 µM; in experiment [2] it was 5.5 µM; in the experiment on Ramos [3] it was 6.3 µM; with Ramos [4] it was 7.3 µM; in experiment [5], 8.9 µM; in the experiment on Jurkat [6], 10 µM.
Consider `O=C1CN=C(c2ccccc2Cl)c2cc([N+](=O)[O-])ccc2N1` [CLONAZEPAM], for which the EC50 in the experiment with Jurkat [1] was > 300 µM; in experiment [2] it was 120 µM; with Ramos [3], > 300 µM; in the experiment with Ramos [4], > 300 µM; in [5], 240 µM; in the experiment with Jurkat [6], > 300 µM.
Turning to `CN1C(=O)CN=C(c2ccccc2)c2cc(Cl)ccc21` [DIAZEPAM], the EC50 was 170 µM in the experiment with Jurkat [1]; 210 µM in experiment [2]; 250 µM in the experiment with Ramos [3]; 170 µM with Ramos [4]; > 300 µM in experiment [5]; 200 µM in the experiment on Jurkat [6].
Turning to `CCC(C)N(C)C(=O)c1cc2ccccc2c(-c2ccccc2Cl)n1` (stereo unspecified) [PK-11195], the EC50 in the experiment with Jurkat [1] stood at 75 µM; in experiment [2] it was 33 µM; in the experiment on Ramos [3], 90 µM; with Ramos [4] it was 100 µM; in experiment [5], 230 µM; in the experiment with Jurkat [6], 56 µM. The Activity was 55.9% in the experiment on Jurkat [7]; 33.9% in the experiment on Jurkat [8]; 67.9% with Jurkat [9]; 68.9% in the experiment on Jurkat [10]; 39.7% in the experiment on Jurkat [11]; 85.5% with Jurkat [12].
For `CN1C(=O)CN=C(c2ccc(Cl)cc2)c2cc(Cl)ccc21` [RO-54864], the EC50 in the experiment on Jurkat [1] was > 300 µM; in experiment [2], 210 µM; with Ramos [3], 130 µM; in the experiment on Ramos [4] it was 180 µM; in experiment [5] it was > 300 µM; with Jurkat [6], 230 µM.

By EC50 is commonly meant the concentration needed to bring the measured effect to its halfway point. A low value points to an effect from little substance.
